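Exposure lasted 48 hours, with cells grown in 96-well plates and compounds tested at five concentrations. Abbreviation: GI50, concentration required for 50% inhibition of growth. The concentration for full growth arrest is given as TGI.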
How the values were obtained:
Experiment in all cases: inhibition of tumour cell growth, NCI panel, 48 h
[1] = tested on: A498 renal
[2] = tested on: HOP-92 NSCLC
[3] = tested on: HT29 colon
[4] = tested on: M14 melanoma
[5] = tested on: MCF7 breast
[6] = tested on: MDA-MB-231 breast
[7] = tested on: MOLT-4 leukemia
[8] = tested on: SF-295 CNS
[9] = tested on: SNB-75 CNS
[10] = tested on: TK-10 renal

Structure (SMILES)	GI50 [1] [µM]	TGI [1] [µM]	GI50 [2] [µM]	TGI [2] [µM]	GI50 [3] [µM]	TGI [3] [µM]	GI50 [4] [µM]	TGI [4] [µM]	GI50 [5] [µM]	TGI [5] [µM]	GI50 [6] [µM]	TGI [6] [µM]	GI50 [7] [µM]	TGI [7] [µM]	GI50 [8] [µM]	TGI [8] [µM]	GI50 [9] [µM]	TGI [9] [µM]	GI50 [10] [µM]	TGI [10] [µM]
O=C(Cc1ccc(/C=C/C(=O)c2ncc[nH]2)cc1)Nc1ccc(Br)cc1	4.72	13.7	6.74	> 16.7	0.726	3.71	3.11	7.83	0.569	> 16.7	3.97	13.4	4.02	> 16.7	2.09	6.19	2.37	> 16.7	4.31	12.6
COc1cc(C2c3cc4c(cc3C3OC(=O)C2C3CO)OCO4)cc(OC)c1OC (stereo not drawn)	< 0.01	0.0605	< 0.0108	0.0869	0.012	> 100	0.0333	> 100	< 0.01	> 100	0.03	0.0901	0.0385	> 100	0.0182	0.166	0.0415	> 100	0.0535	> 100
COc1ccc(C(=O)Nc2ncc(Cc3ccc(F)cc3)s2)cc1	0.0204	0.0898	1.45	76	0.0438	> 100	0.0378	> 100	0.0385	> 100	0.2	76.6	0.0574	> 100	0.0614	2.03	0.036	> 100	4.31	98.3
CC(=O)OC1CCC2(C)C(CCC3C2CCC2(C)C(C4=CC(=O)OC4)CCC32)C1 (stereo not drawn)	1.43	3.4	2.93	22.6	13.1	75.6	5.93	> 100	9.07	95.7	0.725	2.81	2.6	6.3	–	–	11.6	30.2	5.53	22.9
Cn1cc(-c2csc(-c3cn(CCN4CCOCC4)c4ccc(F)cc34)n2)c2cccnc21	5.66	48.5	2.39	9.12	2.85	17.7	2.09	4.89	1.94	6.55	2.51	8.48	1.79	4.46	2.35	7.15	2.57	50.5	3.28	18.8
COc1cc(/C=C/C(=O)c2c(C)n([O-])c3cc(C)c(C)cc3[n+]2=O)cc(OC)c1OC	12.1	37.7	18.2	42.5	18.6	34.7	16.1	60.2	9.62	25.1	17	44.7	6.77	> 100	13.2	34.8	19.8	41.3	14.8	31.2
Cc1cc(-c2ccccc2)c(C)n1Cc1ccc(Cl)cc1	2.21	47.9	1.51	9.28	3.28	17.6	3.21	31.6	3.11	> 100	6.17	32.3	4.84	91.9	2.74	9.33	3.17	> 100	9.66	65.4
CC1OC(OC2C(OC3C[C@@]4(C)C(C[C@H](O)[C@H]5[C@H](C6(C)CCC(C(C)(C)O)O6)CCC54C)[C@]4(C)CC[C@@H](O)C(C)(C)C34)OC(CO)C(O)C2O)C(O)C(O)C1O (stereo partly drawn) (tested in a mixture with another compound)	–	> 100	–	> 100	–	> 100	–	> 100	–	> 100	–	> 100	–	> 100	–	> 100	–	> 100	–	> 100
O=C(c1ccc(O)cc1)c1ccc(C(=O)c2ccc(O)cc2)cc1	> 100	> 100	8.04	> 100	> 100	> 100	> 100	> 100	75.1	> 100	46.9	> 100	> 100	> 100	6.06	> 100	22.5	56.2	> 100	> 100
c1ccc(Cn2cc3c(c2)-c2oncc2CC3)cc1	3.43	> 92.1	7.64	> 91.4	0.398	13.6	0.528	> 100	0.349	> 100	1.36	51.9	0.394	–	0.818	> 20.6	1.11	27	2.98	> 71.5
O=C(Cc1ccccc1)Nc1nnc(CCSCCc2nnc(NC(=O)Cc3ccccc3)s2)s1	0.696	31.9	4.5	25.8	> 100	> 100	12.6	> 100	32.6	> 100	6.51	25.7	23.8	> 100	4.38	36.6	5.18	24.3	35.6	> 100
O=C1Nc2ccccc2C12CC(c1ccccc1)=NN2 (stereo not drawn)	1.85	9.24	1.65	9.43	3.73	27.5	4.9	46.3	3.72	> 100	8.61	79.7	8.41	> 100	4.84	> 100	2.98	59.4	–	–
CN(C)CCCNC(=O)c1cc2c3ccccc3[nH]c2c2ncccc12	14.8	31.7	14.2	57.3	10.3	50.4	–	–	14.7	66.8	14.4	74.9	8.78	> 100	7.49	28	13	33.8	15.5	> 100
